Measurements from patent US20100189648A1, “INHIBITORS FOR DISRUPTING THE INTERACTION OF UBIQUITINATION RELATED ENZYMES AND USES THEREOF” (priority 2006, published 2010).
Values after ≈ are worked out from the molar mass of the structure shown. Where two headings read alike, the source gives them in different places.

What was measured:
Type in all cases: cell-based, human
[1] = system: SMMC-7721; assay: MTT survival assay, liver cancer cell line (SMMC-7721); settings: SMMC-7721; for IC50: Homo sapiens
Protocol: (§1) The effect of the above identified compounds on anti-tumor activity in human carcinoma cells was determined by the MTT survival assay. The MTT assay is a commonly used method in evaluation of cell survival, based on the ability of viable cells to convert MTT (MTT, Sigma, Cat No. 044K5307), a soluble tetrazolium salt [3-(4,5-dimethylthuazole-2-yl)-2,5 diphenyl tetrazolium bromide], into an insoluble formazan precipitate, which is quantitated by spectrophotometry following solubilization in dimethyl sulfoxide (DMSO).
(§2) In brief, different carcinoma cells were treated with negative control, various test articles at different concentration, and positive control (DDP), in 96-well tissue culture dishes. Each test article at different concentration is repeated 3 times.
(§3) Different carcinoma cells were diluted with 10% FBS and RPM1640 or MEM media to a concentration of 3-5×10^4 per ml suspension. 100 microliter of cells were incubated in each well in 96-well tissue culture dishes at 37 C. The cells were incubated at 37 C on the first day. On the second day, media supernatant was removed and replaced with media and different concentration of test articles (100 microliter in each well). Three Negative control wells and three positive control (DDP) wells were also included. The 96-well plate were incubated at 37 C for another 68 hours. After 68 hours, supernatant of each well was removed. 100 microliter of 1 mg/ml MTT diluted in PBS was injected into each well. The cells were incubated at 37 C for another 4 hours. The cells were then solubilized in 150 microliter DMSO, mixed for 10 minutes and absorbance readings were taken using Microplate reader Bio-Rad Model 550 at 570 nm. IR (cell growth inhibition rate) % was calculated as (OD570 of negative control-OD570 with test article)/OD570 of negative control. IC50 (cell 50% inhibition concentration) at 95% confidence level was calculated with Bliss method.

[2] = system: U251; assay: MTT survival assay, glioma cell line (brain tumor U251); settings: U251 (first table)
Protocol: as §1, §2, §3

[3] = system: Hela cells; assay: MTT survival assay, cervical cancer line (Hela cells); settings: for IC50: Homo sapiens
Protocol: as §1, §2, §3

[4] = system: A459; assay: MTT survival assay, lung cancer cell line (A459); settings: A459; for IC50: Homo sapiens
Protocol: as §1, §2, §3

[5] = system: SKOV3; assay: MTT survival assay, ovarian cancer cell line (SKOV3); settings: SKOV3 (first table)
Protocol: as §1, §2, §3

[6] = system: MCF-7; assay: MTT survival assay, breast cancer cell line (MCF-7); settings: for IC50: Homo sapiens
Protocol: as §1, §2, §3

[7] = 95% confidence limits of IC50, read-out: IC50 (95% confidence level), interval
[8] = Bliss method, unit not printed (concentrations in μg/ml), read-out: IC50 (95% confidence level)

With `O=C(Nc1ccnc2[nH]ccc12)c1cc2ccccc2s1` [Mol 11] the IC50 [1, 7] was 14.3 to 15.5 µg/mL (≈ 48.9 to 53 µM), the IC50 [1, 8] was 14.9 µg/mL (≈ 50.9 µM) and the “IR (%)” value ([1]; 3.125 μg/ml) was 37.0%. The “OD(A570 nm)” value ([1]; 3.125 μg/ml) was 0.277 ± 0.018, the “IR (%)” value ([1]; 6.25 μg/ml) was 35.1% and the “OD(A570 nm)” value ([1]; 6.25 μg/ml) was 0.286 ± 0.092. For the same molecule, the “IR (%)” value ([1]; 12.5 μg/ml) was 53.1%, the “OD(A570 nm)” value ([1]; 12.5 μg/ml) was 0.207 ± 0.007 and the “IR (%)” value ([1]; 25 μg/ml) was 53.5%. For the same molecule, the “OD(A570 nm)” value ([1]; 25 μg/ml) was 0.205 ± 0.018, the “IR (%)” value ([1]; 50 μg/ml) was 63.0% and the “OD(A570 nm)” value ([1]; 50 μg/ml) was 0.163 ± 0.009. The “IR (%)” value ([1]; 100 μg/ml) was 68.1%, the “OD(A570 nm)” value ([1]; 100 μg/ml) was 0.141 ± 0.006 and the IC50 ([2]; Homo sapiens, U-251, Bliss method, unit not printed (concentrations in μg/ml), read-out: IC50 (95% confidence level)) was 4340 µg/mL (≈ 14800 µM). For the same molecule, the “IR (%)” value ([2]; 3.125 μg/ml) was 9.1%, the “OD(A570 nm)” value ([2]; 3.125 μg/ml) was 0.797 ± 0.016 and the “IR (%)” value ([2]; 6.25 μg/ml) was 13.5%. The “OD(A570 nm)” value ([2]; 6.25 μg/ml) was 0.758 ± 0.019, the “IR (%)” value ([2]; 12.5 μg/ml) was 15.1% and the “OD(A570 nm)” value ([2]; 12.5 μg/ml) was 0.744 ± 0.045. The “IR (%)” value ([2]; 25 μg/ml) was 20.5%, the “OD(A570 nm)” value ([2]; 25 μg/ml) was 0.697 ± 0.053 and the “IR (%)” value ([2]; 50 μg/ml) was 19.1%. For the same molecule, the “OD(A570 nm)” value ([2]; 50 μg/ml) was 0.709 ± 0.054, the “IR (%)” value ([2]; 100 μg/ml) was 25.8% and the “OD(A570 nm)” value ([2]; 100 μg/ml) was 0.650 ± 0.006. For the same molecule, the “IR (%)” value ([3]; 0.41 μg/ml) was 0.7%, the “OD(A570 nm)” value ([3]; 0.41 μg/ml) was 0.738 ± 0.080 and the “OD(A570 nm)” value ([3]; 1.23 μg/ml) was 0.790 ± 0.037. For the same molecule, the “IR (%)” value ([3]; 3.70 μg/ml) was 2.6%, the “OD(A570 nm)” value ([3]; 3.70 μg/ml) was 0.723 ± 0.032 and the “IR (%)” value ([3]; 11.11 μg/ml) was 12.0%. For the same molecule, the “OD(A570 nm)” value ([3]; 11.11 μg/ml) was 0.653 ± 0.134, the “IR (%)” value ([3]; 33.33 μg/ml) was 61.9% and the “OD(A570 nm)” value ([3]; 33.33 μg/ml) was 0.283 ± 0.047. The “IR (%)” value ([3]; 100 μg/ml) was 80.5%, the “OD(A570 nm)” value ([3]; 100 μg/ml) was 0.145 ± 0.031 and the IC50 [3, 7] was 26.8 to 38.3 µg/mL (≈ 91.3 to 131 µM). The IC50 [3, 8] was 31.9 µg/mL (≈ 109 µM), the “IR (%)” value ([4]; 3.125 μg/ml) was 8.6% and the “OD(A570 nm)” value ([4]; 3.125 μg/ml) was 0.583 ± 0.015. The “IR (%)” value ([4]; 6.25 μg/ml) was 26.1%, the “OD(A570 nm)” value ([4]; 6.25 μg/ml) was 0.471 ± 0.001 and the “IR (%)” value ([4]; 12.5 μg/ml) was 31.2%. For the same molecule, the “OD(A570 nm)” value ([4]; 12.5 μg/ml) was 0.438 ± 0.051, the “IR (%)” value ([4]; 25 μg/ml) was 64.0% and the “OD(A570 nm)” value ([4]; 25 μg/ml) was 0.230 ± 0.040. The “IR (%)” value ([4]; 50 μg/ml) was 76.1%, the “OD(A570 nm)” value ([4]; 50 μg/ml) was 0.152 ± 0.017 and the “IR (%)” value ([4]; 100 μg/ml) was 83.1%. The “OD(A570 nm)” value ([4]; 100 μg/ml) was 0.108 ± 0.013, the IC50 [4, 7] was 19.1 to 19.8 µg/mL (≈ 65.2 to 67.4 µM) and the IC50 [4, 8] was 19.4 µg/mL (≈ 66.3 µM). The IC50 ([5]; Homo sapiens, SK-OV-3, Bliss method, unit not printed (concentrations in μg/ml), read-out: IC50 (95% confidence level)) was 29 µg/mL (≈ 98.9 µM), the “IR (%)” value ([5]; 3.125 μg/ml) was 0% and the “OD(A570 nm)” value ([5]; 3.125 μg/ml) was 0.753 ± 0.074. The “IR (%)” value ([5]; 6.25 μg/ml) was 0.9%, the “OD(A570 nm)” value ([5]; 6.25 μg/ml) was 0.694 ± 0.043 and the “IR (%)” value ([5]; 12.5 μg/ml) was 4.1%. For the same molecule, the “OD(A570 nm)” value ([5]; 12.5 μg/ml) was 0.671 ± 0.063, the “IR (%)” value ([5]; 25 μg/ml) was 45.0% and the “OD(A570 nm)” value ([5]; 25 μg/ml) was 0.385 ± 0.017. The “IR (%)” value ([5]; 50 μg/ml) was 55.1%, the “OD(A570 nm)” value ([5]; 50 μg/ml) was 0.314 ± 0.041 and the “IR (%)” value ([5]; 100 μg/ml) was 86.0%. For the same molecule, the “OD(A570 nm)” value ([5]; 100 μg/ml) was 0.098 ± 0.010, the “IR (%)” value ([6]; 3.125 μg/ml) was 0% and the “OD(A570 nm)” value ([6]; 3.125 μg/ml) was 0.903 ± 0.194. The “IR (%)” value ([6]; 6.25 μg/ml) was 21.2%, the “OD(A570 nm)” value ([6]; 6.25 μg/ml) was 0.711 ± 0.045 and the “IR (%)” value ([6]; 12.5 μg/ml) was 16.6%. The “OD(A570 nm)” value ([6]; 12.5 μg/ml) was 0.752 ± 0.164, the “IR (%)” value ([6]; 25 μg/ml) was 21.9% and the “OD(A570 nm)” value ([6]; 25 μg/ml) was 0.705 ± 0.076. The “IR (%)” value ([6]; 50 μg/ml) was 45.7%, the “OD(A570 nm)” value ([6]; 50 μg/ml) was 0.490 ± 0.093 and the “IR (%)” value ([6]; 100 μg/ml) was 47.0%. The “OD(A570 nm)” value ([6]; 100 μg/ml) was 0.478 ± 0.079, the IC50 ([6]; MCF7, 95% confidence limits of IC50, read-out: IC50 (95% confidence level), interval) was 66.9 to 154 µg/mL (≈ 228 to 526 µM) and the IC50 ([6]; MCF7, Bliss method, unit not printed (concentrations in μg/ml), read-out: IC50 (95% confidence level)) was 94.2 µg/mL (≈ 321 µM).
